Laboratory results taken from patent US20030036518A1, “ARTIFICIAL POLYMERIC MEMBRANE STRUCTURE, METHOD FOR PREPARING SAME, METHOD FOR PREPARING THIS POLYMER, PARTICLE AND FILM CONTAINING THIS STRUCTURE” (priority 1996, published 2003).

What was measured:
Assay type in all cases: physicochemical
[1] = Association of doxorubicin with porous particles; details: 5 mg doxorubicin hydrochloride, 5 mg SEPHADEX® C25, 2 h at 4° C.
Procedure: The overall procedure was as in example 7, but incorporating doxorubicin (C27H29NO11,PM543, 53) in place of haemoglobin, 5 mg of doxorubicin hydrochloride being dissolved in 1 ml of distilled water and incubated with 5 mg of porous particles (SEPHADEX® C25) substituted with carboxymethyl groups. The pore size of the particles was such that molecules with a maximum molecular weight of 25000 could penetrate. The suspension was stirred for 2 h at 4° C. with a planetary stirrer. It was then decanted and the free doxorubicin concentration was measured by UV spectrophotometry at 480 nm. […] The non-absorbed doxorubicin fraction was removed by decanting and washing the cake with distilled water.

[2] = Association of doxorubicin with small-size porous particles; details: 5 mg doxorubicin, 5 mg small-size porous particles, 2 h
Procedure: The procedure was as in example 10, but an attempt was made to prepare smaller sized porous particles. 1 g of SEPHADEX® C25 porous matrix was dispersed in 100 ml of distilled water and the preparation was ground for 15 min with a helical mill. The preparation was then centrifuged at 3000 g for 10 min and the supernatant was recovered and then subjected to further centrifuging at 25000 g for 45 min. The supernatant was removed, the cake was put back into suspension and 50 mg of a dry product were obtained following freeze-drying. The size of the particles obtained, measured by a particle analyzer, was between 300 and 500 nm.
5 mg of these small-size porous particles were dispersed in 5 ml of distilled water. 5 mg of doxorubicin were added and the whole was stirred for 2 h. The concentration of doxorubicin not associated with the particles was determined by ultrafiltration of an aliquot of the suspension through an ultrafiltration membrane of which the separation threshold was 50000, and the concentration of free doxorubicin was measured by UV spectrometry at 480 nm. […] These were then used as they were without supplementary purification.

[3] = Absorption of haemoglobin on the porous substrate; details: 20 mg haemoglobin, 5 mg SEPHADEX® SPC50, pH 6.5, 24 h at 4° C.
Procedure: 5 mg of porous particles (SEPHADEX® SPC50) with a diameter of 150 μm substituted with sulfopropyl groups and having a pore size sufficient to allow the penetration of molecules with a maximum molecular weight of 250000, were dispersed in 5 ml of a 10 mM bi-tri buffer, of pH 6.5 (where the haemoglobin is cationic and is attracted inside the anionic sites of the porous particles). 20 mg of haemoglobin, extracted from human erythrocytes by the lysis method in a hypotonic medium, were then added to this dispersion. The preparation was stirred for 24 h at 4° C. on a planetary stirrer. The particles were then decanted and the quantity present in the supernatant was determined by UV spectrometry at 410 nm. […] The non-absorbed haemoglobin was removed by decanting the particles and washing them with a 10 mM bi-tri buffer.

Molecule	doxorubicin associated with the particles [1]	doxorubicin associated with the particles [2]	haemoglobin present inside the particles [3]
COc1cccc2c1C(=O)c1c(O)c3c(c(O)c1C2=O)C[C@@](O)(C(=O)CO)C[C@@H]3O[C@H]1C[C@H](N)[C@H](O)[C@H](C)O1 [doxorubicin]	more than 97%	more than 98%	–
haemoglobin: haemoglobin extracted from human erythrocytes by the lysis method in a hypotonic medium	–	–	more than 98%
